From patent US10590088B2, “4-(benzimidazol-2-ylamino)benzamide derivatives and methods of synthesis thereof” (TRANSLATIONAL DRUG DEVELOPMENT, LLC, priority 2009, dated 2020)

Assays:
SKOV3 cells = assay: CellTiter-Blue cell viability assay, single agent, 72 hour treatment, SKOV3; type: cell-based; conditions: Homo sapiens, SK-OV-3
Protocol: (§1) Cell viability in the presence of varying concentrations of the above listed compounds at different time points was used to assess cytotoxicity and the effect of the compounds on cell proliferation.
(§2) Cell viability was measured by the CellTiter-Blue® cell viability assay Promega (Madison, Wis.). This procedure measures the conversion of the indicator dye (resazurin) to resorufin, an indicator of cell viability. Following treatment, growth media was removed and cells were incubated with 20 μl of CellTiter-Blue® Reagent and growth media for 1-4 hours at 37° C. Fluorescence values were measured at 535/590 nm using a Beckman-Coulter DTX-880 microplate reader.
(§3) Cells were grown to 70% confluency, trypsinized, counted, and seeded in 96 well flat-bottom plates at a final concentration of 2.5×10^3-5×10^3 cells/well (Day 0). Cells were allowed to incubate in growth media for 24 hours to allow for maximum adhesion. Treatment with the test agents or standard agents began on Day 1 and continued for 72 hours. At the 72 hour timepoint, treatment containing media was removed. Viable cell numbers are quantified by the CellTiter-Blue® cell viability assay as described above. Experiments were repeated at least twice with the same concentrations to determine growth inhibitory activity. Results from these studies were used to calculate an IC50 value (concentration of drug that inhibits cell growth by 50 percent of control) for each compound.
(§4) For single agent and combination studies, data from each experiment was collected and expressed as % Cell Growth using the following calculation: % Cell Growth=(ftest/fvehicle)×100
(§5) Where ftest is the fluorescence of the tested sample, and fvehicle is the fluorescence of the vehicle in which the drug is dissolved. Dose response graphs and IC50 values were generated using Prism 4 software (GraphPad) using the following equation: […]
(§6) Where X is the logarithm of concentration and Y is the response. Y starts at the Bottom and goes to Top with a sigmoid shape.

A2780 cells = assay: CellTiter-Blue cell viability assay, single agent, 72 hour treatment, A2780; type: cell-based; conditions: Homo sapiens
Protocol: as §1, §2, §3, §4, §5, §6

[1] = test system: A2780 human ovarian cells xenograft; assay: In vivo efficacy in human ovarian tumor xenograft model; conditions: female Ncr nude mice
Protocol: FIG. 1 depicts in vivo efficacy studies of compound #4 (N-hydroxy-4-(1-(2-methoxyethyl)-1H-benzo[d]imidazol-2-ylamino)benzamide) in A2780 xenograft models.
In vivo efficacy of the disclosed compound was tested through a human ovarian tumor xenograft model. Female Ncr nude mice were inoculated with 1×10^7 A2780 human ovarian cells suspended in a mixture of 50% Matrigel and 50% tissue culture media in a total volume of 100 μl. Four days following inoculation, the mice were pair-matched into four groups of 7-8 mice per group at an average tumor weight of 157 mg per group. Group 1 (G1) was treated with vehicle only daily for 14 days. Group 3 (G3) was treated with Compound ID #4 (T062) at 100 mg/kg daily for 14 days. Group 5 (G5) was treated with Doxil at 3 mg/kg on Day 1 only. Group 6 (G6) was treated with Compound ID #4 (T062) at 50 mg/kg (daily for 14 days) plus Doxil at 3 mg/kg on Day 1 only. Group 7 (G7) was treated with Compound ID #4 (T062) at 100 mg/kg (daily for 14 days) plus Doxil at 3 mg/kg on Day 1 only. Vehicle and Compound ID #4 were administered orally via oral gavage while Doxil was administered intravenously via tail injection. Body weights and tumor measurements were collected twice weekly. Tumor width and length were measured in millimeters and converted to tumor weight (in milligrams) using the formula […]=tumor weight (mg.).

| IC50 (SKOV3 cells) [µM] | IC50 (A2780 cells) [µM] | SMILES | In vivo efficacy (tumor weight) versus Doxil as a single agent ([1]; Group 6: Compound ID #4 50 mg/kg oral daily for 14 days plus Doxil 3 mg/kg i.v. on Day 1 only) | In vivo efficacy (tumor weight) versus Doxil as a single agent ([1]; Group 7: Compound ID #4 100 mg/kg oral daily for 14 days plus Doxil 3 mg/kg i.v. on Day 1 only) |
| --- | --- | --- | --- | --- |
| 0.3 | 1.1 | COCCn1c(Nc2ccc(C(=O)NO)cc2)nc2cc(-c3cccc(F)c3)ccc21 [ID 14, 4-(5-(3-fluorophenyl)-1-(2-methoxyethyl)-1H-benzo[d]imidazol-2-ylamino)-N-hydroxybenzamide] |  |  |
| 21 |  | CC(C)n1c(Nc2ccc(C(=O)NO)cc2)nc2cc(-c3cncnc3)ccc21 [ID 18, N-hydroxy-4-(1-isopropyl-5-(pyrimidin-5-yl)-1H-benzo[d]imidazol-2-ylamino)benzamide] |  |  |
| 8.1 |  | CC(C)n1c(Nc2ccc(C(=O)NO)cc2)nc2cc(-c3cccnc3)ccc21 [ID 19, N-hydroxy-4-(1-isopropyl-5-(pyridin-3-yl)-1H-benzo[d]imidazol-2-ylamino)benzamide] |  |  |
| 0.7 | 1.4 | COCCn1c(Nc2ccc(C(=O)NO)cc2)nc2cc(F)ccc21 [ID 12, 4-(5-fluoro-1-(2-methoxyethyl)-1H-benzo[d]imidazol-2-ylamino)-N-hydroxybenzamide] |  |  |
| 6.9 | 4.1 | COCCn1c(Nc2ccc(C(=O)NO)cc2)nc2cc(Br)ccc21 [ID 10, 4-(5-bromo-1-(2-methoxyethyl)-1H-benzo[d]imidazol-2-ylamino)-N-hydroxybenzamide] |  |  |
| 17.7 | 12.1 | COCCn1c(Nc2ccc(C(=O)NO)cc2)nc2ccc(F)cc21 [ID 21, 4-(6-fluoro-1-(2-methoxyethyl)-1H-benzo[d]imidazol-2-ylamino)-N-hydroxybenzamide] |  |  |
| 16 | 22 | COCc1ccc2c(c1)nc(Nc1ccc(C(=O)NO)cc1)n2C(C)C [ID 23, N-hydroxy-4-(1-isopropyl-5-(methoxymethyl)-1H-benzo[d]imidazol-2-ylamino)benzamide] |  |  |
| 4.3 | 15 | COCCn1c(Nc2ccc(C(=O)NO)cc2)nc2cc(C3CC3)ccc21 [ID 16, 4-(5-cyclopropyl-1-(2-methoxyethyl)-1H-benzo[d]imidazol-2-ylamino)-N-hydroxybenzamide] |  |  |
|  | 1.9 | COCCCn1c(Nc2ccc(C(=O)NO)cc2)nc2ccccc21 [ID 9, N-hydroxy-4-(1-(3-methoxypropyl)-1H-benzo[d]imidazol-2-ylamino)benzamide] |  |  |
|  |  | COCCn1c(Nc2ccc(C(=O)NO)cc2)nc2ccccc21 [ID 4, N-hydroxy-4-(1-(2-methoxyethyl)-1H-benzo[d]imidazol-2-ylamino)benzamide] | improved efficacy over Group 5 | improved efficacy over Group 5 |
| 34 | 40 | O=C(NO)c1ccc(Nc2nc3ccccc3n2CCO)cc1 [ID 11, N-hydroxy-4-(1-(2-hydroxyethyl)-1H-benzo[d]imidazol-2-ylamino)benzamide] |  |  |
| 8.2 |  | CN(C)CCn1c(Nc2ccc(C(=O)NO)cc2)nc2cc(Br)ccc21 [ID 17, 4-(5-bromo-1-(2-(dimethylamino)ethyl)-1H-benzo[d]imidazol-2-ylamino)-N-hydroxybenzamide] |  |  |
| 48 | 16 | COCCn1c(Nc2ccc(C(=O)NO)cc2)nc2cc(-c3cncnc3)ccc21 [ID 15, N-hydroxy-4-(1-(2-methoxyethyl)-5-(pyrimidin-5-yl)-1H-benzo[d]imidazol-2-ylamino)benzamide] |  |  |
| 1.9 | 5.1 | CC(C)OCCn1c(Nc2ccc(C(=O)NO)cc2)nc2ccccc21 [ID 13, N-hydroxy-4-(1-(2-isopropoxyethyl)-1H-benzo[d]imidazol-2-ylamino)benzamide] |  |  |
| 17.6 | 12.1 | COCCn1c(Nc2ccc(C(=O)NO)cc2)nc2c(F)cccc21 [ID 22, 4-(4-fluoro-1-(2-methoxyethyl)-1H-benzo[d]imidazol-2-ylamino)-N-hydroxybenzamide] |  |  |
| 4.8 |  | CC(C)n1c(Nc2ccc(C(=O)Nc3ccccc3N)cc2)nc2ccccc21 [ID 1, N-(2-aminophenyl)-4-(1-isopropyl-1H-benzo[d]imidazol-2-ylamino)benzamide] |  |  |
| 5.8 |  | COCCn1c(Nc2ccc(C(=O)Nc3ccccc3N)cc2)nc2ccccc21 [ID 20, N-(2-aminophenyl)-4-(1-(2-methoxyethyl)-1H-benzo[d]imidazol-2-ylamino)benzamide] |  |  |
